System: corticospinal neurons (CSNs/CSMNs)
Test: Laser-capture microdissection and Illumina microarray gene expression in corticospinal neurons contralateral to stroke
Format: in vivo, rat
Method: In a separate group of animals (n=20), layer V pyramidal cells of the sensorimotor cortex were retrogradely labeled by injecting Alexa-Fluor-488-conjugated cholera toxin B subunit (CTB; 300 U/μl in sterile saline) into the cervical spinal cord. For this, animals were anesthetized with a combination of ketamine and Domitor (medetomidine) and a laminectomy was performed at the cervical level of the spinal cord (C2-C4). CTB was stereotaxically delivered into four sites lateral to the corticospinal tract. Injections (1.3 μl) were spaced 1 mm apart on the rostro-caudal axis, and were made 0.5 mm to the left and right of the midline. After allowing two weeks for transport of the tracer, we performed either sham surgery with no treatment (n=6) or stroke surgery combined with saline (n=3) or inosine (n=4) treatment as described above. Seven days later, animals were decapitated under transient gas anesthesia, brains were removed and rinsed in cold RPMI medium, and a tissue block containing the sensorimotor cortex was dissected and placed in OCT Tissue Tek Medium (Sakura Finetek USA Inc., CA) on dry ice within five minutes of death. Ten μm sections were cut onto precleaned Gold Seal RITE-ON glass slides (Gold Seal Prod-ucts, Portsmouth, N.H.), placed on dry ice, and rapidly stored at −80° C.
Slide-mounted sections were thawed and dehydrated in RNAse-free ethanol gradients and xylene. Retro-gradely labeled, fluorescent cortical pyramidal cells in the undamaged hemisphere were individually captured using the Arcturus VERITAS system. ≧500 cells were collected from each animal and stored in Arcturus extraction buffer at −80° C. Total RNA was extracted from cells using the Micro-to-Midi TotalRNA Purification System (Invitrogen, Carlsbad Calif.) and double-amplified using the TargetAmp 2-Round Aminoallyl-aRNA Amplification kit 1.0 (Epicentre, Madison, Wis.). Amplified RNA was checked for average fragment length using the Agilent RNA 6000 Nano LabChip kit (Agilent Technologies, Santa Clara, Calif.) and then biotinylated and hybridized (1 μg) on Illumina RatRef-12 Expression BeadChip arrays (Illumina, San Diego Calif.), querying the expression of >22,000 RefSeq-curated rat transcripts. Results were obtained from a total of 15 samples representing 6 untreated controls, 4 animals with stroke treated with saline and 5 animals with stroke treated with inosine. Slides were processed and scanned with Illumina BeadStation platform according to the manufacturer protocol.
Raw data was analyzed using Bioconductor packages (www.bioconductor.org, (Gentleman et al., 2004)). Low level quality-control analysis was performed using inter-array Pearson correlation and clustering based on variance. Two arrays (1 saline and 1 inosine-treated) were outliers and were excluded from the analysis. Data was normalized using quantile normalization, and analysis of differential expression was performed using a linear model fitting (LIMMA package, (Smyth, 2005). Differentially expressed genes were classified according to gene ontology using Bioconductor packages and online tools (DAVID, http://david.abcc.ncifcrf.gov/). Pathway analysis was carried out using Ingenuity Pathway Analysis (Ingenuity Systems, www.ingenuity.com).

Question: With `OC[C@H]1O[C@@H](n2cnc3c(O)ncnc32)[C@H](O)[C@@H]1O` [inosine] as the compound, how does the “Fold-Induction Stroke, ino vs. cntrl, Hbld2” value (ILMN_57967) read?
Answer: 0.54

Question: What about the “Signal Intensity, Hbld2” value (ILMN_57967, inosine after stroke) of the same compound?
Answer: 1095

Question: And the “Fold-Induction Stroke, ino vs. cntrl, LOC298490” value (ILMN_58032)?
Answer: 0.62

Question: What about the “Signal Intensity, LOC298490” value (ILMN_58032, inosine after stroke) of the same compound?
Answer: 1407

Question: What about the “Fold-induction CSMNs: Lcp1” value (ILMN_58058, over and above inosine's effect of decreasing stroke-induced changes) of the same compound?
Answer: 2.68 fold

Question: What about the “Fold-Induction Stroke, ino vs. cntrl, LOC290549” value (ILMN_58092) of the same compound?
Answer: 0.54

Question: And the “Signal Intensity, LOC290549” value (ILMN_58092, inosine after stroke)?
Answer: 1870

Question: And the “Fold-Induction Stroke, ino vs. cntrl, Rhob” value (ILMN_58180)?
Answer: 0.52

Question: What about the “Signal Intensity, Rhob” value (ILMN_58180, inosine after stroke) of the same compound?
Answer: 276

Question: What about the “Fold-Induction Stroke, ino vs. cntrl, Gdap2” value (ILMN_58290) of the same compound?
Answer: 0.58

Question: What about the “Signal Intensity, Gdap2” value (ILMN_58290, inosine after stroke) of the same compound?
Answer: 319

Question: What about the “Fold-Induction, complement cascade gene C1qa” value (ILMN_58496, LCM-captured CSMNs contralateral a stroke) of the same compound?
Answer: 2.03 fold

Question: And the “Fold-induction CSMNs: C1qa” value (ILMN_58496, over and above inosine's effect of decreasing stroke-induced changes)?
Answer: 1.84 fold

Question: What about the “Fold-Induction Stroke, ino vs. cntrl, Rab11a” value (ILMN_58550) of the same compound?
Answer: 0.56

Question: And the “Signal Intensity, Rab11a” value (ILMN_58550, inosine after stroke)?
Answer: 1039

Question: What about the “Fold-Induction Stroke, ino vs. cntrl, LOC499088” value (ILMN_58730) of the same compound?
Answer: 0.59

Question: And the “Signal Intensity, LOC499088” value (ILMN_58730, inosine after stroke)?
Answer: 1089

Question: And the “Fold-Induction Stroke, ino vs. cntrl, Dars” value (ILMN_58816)?
Answer: 0.76

Question: And the “Signal Intensity, Dars” value (ILMN_58816, inosine after stroke)?
Answer: 349

Question: What about the “Fold-Induction, complement cascade gene Adn ((P) adipsin)” value (ILMN_58846, LCM-captured CSMNs contralateral a stroke) of the same compound?
Answer: 5.81 fold

Question: What about the “Fold-Induction Stroke, ino vs. cntrl, Emb” value (ILMN_58897) of the same compound?
Answer: 0.77

Question: And the “Signal Intensity, Emb” value (ILMN_58897, inosine after stroke)?
Answer: 425

Question: And the “Fold-Induction Stroke, ino vs. cntrl, Kifap3” value (ILMN_59040)?
Answer: 0.64

Question: What about the “Signal Intensity, Kifap3” value (ILMN_59040, inosine after stroke) of the same compound?
Answer: 270

Question: And the “Fold-induction CSMNs: Npc2” value (ILMN_59161, over and above inosine's effect of decreasing stroke-induced changes)?
Answer: 1.73 fold

Question: And the “Fold-Induction Stroke, ino vs. cntrl, Plcb1” value (ILMN_59359)?
Answer: 0.59

Question: What about the “Signal Intensity, Plcb1” value (ILMN_59359, inosine after stroke) of the same compound?
Answer: 512

Question: And the “Fold-induction CSMNs: Emp3” value (ILMN_59412, over and above inosine's effect of decreasing stroke-induced changes)?
Answer: 2.20 fold

Question: What about the “Fold-Induction Stroke, ino vs. cntrl, LOC291762” value (ILMN_59483) of the same compound?
Answer: 0.52

Question: What about the “Signal Intensity, LOC291762” value (ILMN_59483, inosine after stroke) of the same compound?
Answer: 673

Question: And the “Fold-Induction Stroke, ino vs. cntrl, LOC315840” value (ILMN_59546)?
Answer: 0.85

Question: And the “Signal Intensity, LOC315840” value (ILMN_59546, inosine after stroke)?
Answer: 3649

Question: And the “Fold-Induction, complement cascade gene C4-2” value (ILMN_59751, LCM-captured CSMNs contralateral a stroke)?
Answer: 2.15 fold

Question: What about the “Fold-induction CSMNs: Ppp1r14b” value (ILMN_59774, over and above inosine's effect of decreasing stroke-induced changes) of the same compound?
Answer: 1.74 fold

Question: And the “Fold-Induction Stroke, ino vs. cntrl, Bcas2” value (ILMN_59789)?
Answer: 0.91

Question: And the “Signal Intensity, Bcas2” value (ILMN_59789, inosine after stroke)?
Answer: 1103

Question: And the “Fold-Induction Stroke, ino vs. cntrl, D123” value (ILMN_59956)?
Answer: 0.76

Question: What about the “Signal Intensity, D123” value (ILMN_59956, inosine after stroke) of the same compound?
Answer: 607

Question: What about the “Fold-Induction Stroke, ino vs. cntrl, LOC497728” value (ILMN_59964) of the same compound?
Answer: 0.56

Question: And the “Signal Intensity, LOC497728” value (ILMN_59964, inosine after stroke)?
Answer: 1366

Question: What about the “Fold-induction CSMNs: Cd68” value (ILMN_60003, over and above inosine's effect of decreasing stroke-induced changes) of the same compound?
Answer: 2.62 fold

Question: And the “Fold-Induction Stroke, ino vs. cntrl, Tspan2” value (ILMN_60033)?
Answer: 0.54

Question: And the “Signal Intensity, Tspan2” value (ILMN_60033, inosine after stroke)?
Answer: 1363

Question: What about the “Fold-induction CSMNs: Lgals3bp” value (ILMN_60037, over and above inosine's effect of decreasing stroke-induced changes) of the same compound?
Answer: 2.60 fold

Question: What about the “Fold-Induction, complement cascade gene Serping1” value (ILMN_60046, LCM-captured CSMNs contralateral a stroke) of the same compound?
Answer: 2.20 fold

Question: What about the “Fold-induction CSMNs: Serping1” value (ILMN_60046, over and above inosine's effect of decreasing stroke-induced changes) of the same compound?
Answer: 2.93 fold

Question: What about the “Fold-Induction Stroke, ino vs. cntrl, Pgk1” value (ILMN_60123) of the same compound?
Answer: 0.65

Question: What about the “Signal Intensity, Pgk1” value (ILMN_60123, inosine after stroke) of the same compound?
Answer: 5869

Question: And the “Fold-Induction Stroke, ino vs. cntrl, Ndufa8” value (ILMN_60239)?
Answer: 0.57

Question: What about the “Signal Intensity, Ndufa8” value (ILMN_60239, inosine after stroke) of the same compound?
Answer: 572

Question: And the “Fold-Induction Stroke, ino vs. cntrl, Kbtbd9” value (ILMN_60252)?
Answer: 0.68

Question: And the “Signal Intensity, Kbtbd9” value (ILMN_60252, inosine after stroke)?
Answer: 1263

Question: What about the “Fold-Induction Stroke, ino vs. cntrl, LOC309016” value (ILMN_60417) of the same compound?
Answer: 0.68

Question: What about the “Signal Intensity, LOC309016” value (ILMN_60417, inosine after stroke) of the same compound?
Answer: 554

Question: What about the “Fold-Induction Stroke, ino vs. cntrl, Bckdhb” value (ILMN_60448) of the same compound?
Answer: 0.61

Question: And the “Signal Intensity, Bckdhb” value (ILMN_60448, inosine after stroke)?
Answer: 281

Question: What about the “Fold-Induction Stroke, ino vs. cntrl, Rbm18” value (ILMN_60511) of the same compound?
Answer: 0.62

Question: And the “Signal Intensity, Rbm18” value (ILMN_60511, inosine after stroke)?
Answer: 301

Question: And the “Fold-Induction Stroke, ino vs. cntrl, LOC360618” value (ILMN_60542)?
Answer: 0.69

Question: What about the “Signal Intensity, LOC360618” value (ILMN_60542, inosine after stroke) of the same compound?
Answer: 1021

Question: What about the “Fold-Induction Stroke, ino vs. cntrl, Mg87” value (ILMN_60584) of the same compound?
Answer: 0.80

Question: And the “Signal Intensity, Mg87” value (ILMN_60584, inosine after stroke)?
Answer: 1251

Question: And the “Fold-Induction Stroke, ino vs. cntrl, Ndfip1” value (ILMN_60653)?
Answer: 0.80

Question: And the “Signal Intensity, Ndfip1” value (ILMN_60653, inosine after stroke)?
Answer: 362

Question: What about the “Fold-induction CSMNs: Rhoc” value (ILMN_61063, over and above inosine's effect of decreasing stroke-induced changes) of the same compound?
Answer: 2.02 fold

Question: What about the “Fold-Induction Stroke, ino vs. cntrl, Pja2” value (ILMN_61213) of the same compound?
Answer: 0.58

Question: And the “Signal Intensity, Pja2” value (ILMN_61213, inosine after stroke)?
Answer: 2360

Question: What about the “Fold-Induction Stroke, ino vs. cntrl, Khdrbs3” value (ILMN_61216) of the same compound?
Answer: 0.57

Question: And the “Signal Intensity, Khdrbs3” value (ILMN_61216, inosine after stroke)?
Answer: 2045

Question: And the “Fold-Induction Stroke, ino vs. cntrl, Dlgap1” value (ILMN_61367)?
Answer: 0.68

Question: What about the “Signal Intensity, Dlgap1” value (ILMN_61367, inosine after stroke) of the same compound?
Answer: 1249

Question: What about the “Fold-Induction, complement cascade gene C1qb” value (ILMN_61448, LCM-captured CSMNs contralateral a stroke) of the same compound?
Answer: 1.84 fold

Question: What about the “Fold-Induction Stroke, ino vs. cntrl, LOC500629” value (ILMN_61521) of the same compound?
Answer: 0.59
